In brackets after ≈: the same amount, converted by molar mass. Several values for one entry are separate records, joined by “and”; a condition that tells them apart may be missing. Identical values can stand only once. Like-named read-outs stand apart in the source and are kept apart here.
What was measured:
[1] = test system: M. bovis BCG; assay: microbe, parasite or virus in culture; format: cell-based, Mycobacterium bovis BCG
[2] = test system: Mtb H37Rv; assay: MIC by broth microdilution against Mtb H37Rv; format: cell-based, Mycobacterium tuberculosis; settings: incubation 5 days
[3] = test system: Mab abscessus ATCC 19977; assay: MIC against Mab abscessus ATCC 19977; format: cell-based, Mycobacterium abscessus subsp. abscessus; settings: for MIC90: read-out: MIC90 Mab abscessus ATCC 19977; for MIC50 Mab abscessus ATCC 19977 / MIC50: 3 days; for MIC50: ATCC19977, 72 h
[4] = test system: Mab massiliense CCUG 48898-T; assay: MIC against Mab massiliense CCUG 48898-T; format: cell-based, Mycobacterium abscessus subsp. massiliense; settings: for MIC50 Mab massiliense CCUG 48898-T / MIC50: 3 days; for MIC50: CCUG48898, 72 h
[5] = test system: Mab bolletii CCUG 50184-T; assay: MIC against Mab bolletii CCUG 50184-T; format: cell-based, Mycobacterium abscessus subsp. bolletii; settings: for MIC50 Mab bolletii CCUG 50184-T / MIC50: 3 days; for MIC50: CCUG50184, 72 h
[6] = test system: Vero E6; assay: Cytotoxicity in Vero E6 cells; format: cell-based, African green monkey; settings: 48 h, growth suppressed by 50% vs untreated
Procedure: (§1) To each well in a 96-well plate, 50,000 cells in 100 μL media were seeded. Vero E6 and HepG2 cells were incubated overnight in DMEM for cell adherence at 37°C and 5% CO2. The media was removed from the wells and 100 μL solution made up of fresh DMEM media (99 μL) and the test compound (1 μL from a DMSO stock solution that was […] more concentrated than the final concentration in the well) was then added to each well. DMSO content of each well was consistently kept at 0.5 %v/v. Treated plates were incubated for 48 h (5% CO2, 37°C), after which 10 μL of Celltitre 96 Aqueous One Solution was added to each well, without removal of media, and incubated for a further 3 h. Subsequently, absorbance readings were taken at 490 nm on a Tecan GENios Microplate Reader.
(§2) Cell viability was determined from the expression: Cellviability(%)={[Absorbance(cells+cpd)−Absorbance(cpd)]/[Absorbance(cells+vc)−Absorbance(vc)]}×100% where Absorbance (cells + cpd) = absorbance of wells containing cells and test compound in vehicle (media +0.5% DMSO); Absorbance (cpd) = absorbance of wells containing test compound in vehicle without cells (compound control); Absorbance (cells + vc) = absorbance of wells containing cells in vehicle (vc) only (untreated cells); Absorbance (vc) = absorbance of wells containing vehicle without cells (vehicle control). The percentage viability readings were plotted against log(concentration) on GraphPad Prism (Version 7.0, San Diego, CA) to give a sigmoidal curve, from which IC50, defined as the concentration of the compound that reduced cell viability by 50%, was obtained. At least 3 separate determinations were carried out.

[7] = test system: HepG2; assay: Cytotoxicity in HepG2 cells; format: cell-based, human; settings: 48 h, growth suppressed by 50% vs untreated
Procedure: as §1, §2

[8] = test system: M. bovis BCG; format: cell-based, Mycobacterium bovis BCG
[9] = test system: M. bovis BCG; format: cell-based, Mycobacterium bovis BCG; remark: listed apart in the source
[10] = test system: M. bovis BCG; format: cell-based, Mycobacterium bovis BCG; settings: PhA2 2x–4x MIC90BCG, TDZ 80 μM, 24 h
[11] = test system: M. bovis BCG; format: cell-based, Mycobacterium bovis BCG; settings: 24 h
[12] = test system: M. bovis BCG-pclgR-RFP; format: cell-based, Mycobacterium bovis BCG; settings: 0.25x – 2x MIC90 (controls 10 μM), 24 h
[13] = test system: Mtb H37Rv; settings: minimum concentration to inhibit growth of Mtb H37RV by 99%; cited from earlier work
[14] = test system: M. bovis BCG; format: cell-based, Mycobacterium bovis BCG; settings: 0.5x to 4x MIC90BCG
[15] = test system: M. bovis BCG; format: cell-based, Mycobacterium bovis BCG; settings: 2x MIC90BCG over 48 h
[16] = test system: M. bovis BCG; settings: 2x MIC90 over 24 h
[17] = test system: clinical isolates of Mab; assay: MIC50 against Mab clinical isolates; format: cell-based, Mycobacterium abscessus; settings: Mycobacteroides abscessus
[18] = test system: Mab complex; assay: MIC against Mab complex (summary over the 3 subspecies); format: cell-based, Mycobacterium abscessus; settings: Mycobacteroides abscessus, read-out: MIC90 Mab complex
[19] = 7H9 medium (first value of cell)
[20] = CA-MHB medium (second value of cell)
[21] = Mycobacterium tuberculosis variant bovis BCG, BCG, M. bovis BCG, broth dilution, growth reduced by 90% vs untreated
[22] = Mycobacterium tuberculosis variant bovis BCG, BCG, read-out: MIC90 BCG, M. bovis BCG
[23] = Mycobacterium tuberculosis variant bovis BCG, BCG, M. bovis BCG, broth dilution, growth reduced by 50% vs untreated
[24] = Mycobacterium tuberculosis variant bovis BCG, BCG, read-out: MIC90 (Table S1), M. bovis BCG, broth dilution
[25] = Mycobacteroides abscessus, 7H9 medium (first value of cell)
[26] = Mycobacteroides abscessus, CA-MHB medium (second value of cell)

## COc1ccc(CCN(C)CCCC(C#N)(CCC2CCCCC2)c2ccc(OC)c(OC)c2)cc1OC (stereo not drawn) [PhA1]
[1]
  MIC50: 12 µM (≈ 6.27 µg/mL)
  MIC50 BCG With Glycerol: 12 µM (≈ 6.27 µg/mL)
  MIC50 BCG Without Glycerol: 21 µM (≈ 11 µg/mL)
  MIC90 (Table S1): 25 µM (≈ 13.1 µg/mL)
[2]; first value of cell MIC50/MIC90
  MIC50 Mtb H37Rv: 19 µM (≈ 9.93 µg/mL)
[2]; second value of cell MIC50/MIC90, read-out: MIC90 Mtb H37Rv
  MIC90: 43 µM (≈ 22.5 µg/mL)
[3]; 7H9 broth (first value)
  MIC90: 115 µM (≈ 60.1 µg/mL)
[3]; [19]
  MIC50 Mab abscessus ATCC 19977: 76 µM (≈ 39.7 µg/mL)
[3]; [20]
  MIC50 Mab abscessus ATCC 19977: 25 µM (≈ 13.1 µg/mL)
[3]; camH broth (second value)
  MIC90: 54 µM (≈ 28.2 µg/mL)
[4]; 7H9 broth (first value)
  MIC90: 106 µM (≈ 55.4 µg/mL)
[4]; [19]
  MIC50 Mab massiliense CCUG 48898-T: 100 µM (≈ 52.3 µg/mL)
[4]; [20]
  MIC50 Mab massiliense CCUG 48898-T: 15 µM (≈ 7.84 µg/mL)
[4]; camH broth (second value)
  MIC90: 125 µM (≈ 65.3 µg/mL)
[5]; 7H9 broth (first value)
  MIC90: 109 µM (≈ 57 µg/mL)
[5]; [19]
  MIC50 Mab bolletii CCUG 50184-T: 97 µM (≈ 50.7 µg/mL)
[5]; [20]
  MIC50 Mab bolletii CCUG 50184-T: 22 µM (≈ 11.5 µg/mL)
[5]; camH broth (second value)
  MIC90: 61 µM (≈ 31.9 µg/mL)
[6]
  IC50: 51 µM
[7]
  IC50: 34 µM
[8]
  MBC99.9 (10^3-fold kill): 4 x MIC90
[9]
  CFUs above the detection limit: 10–100 times

## CSc1ccc2c(c1)N(CCC1CCCCN1C)c1ccccc1S2 (stereo not drawn) [TDZ, thioridazine, reference compound]
[1]; [21]
  MIC90: 30 µM
[1]; [22]
  MIC90: 11 µg/mL
[10]
  NADH/NAD+ ratio: higher ratios
[11]; 80 μM, 30 μg/mL
  methylene blue decolorization (O2 uptake): No decolorization

## CO[C@H]1/C=C/O[C@@]2(C)Oc3c(C)c(O)c4c(O)c(c(/C=N/N5CCN(C)CC5)c(O)c4c3C2=O)NC(=O)/C(C)=C\C=C\[C@H](C)[C@H](O)[C@@H](C)[C@@H](O)[C@@H](C)[C@H](OC(C)=O)[C@@H]1C [RIF, rifampin, reference compound]
[1]; Mycobacterium tuberculosis variant bovis BCG, BCG, read-out: MIC90 BCG
  MIC90: 0.04 µM and 0.033 µg/mL
[12]
  induction of pclgR promoter activity: No induction

## COc1ccc(CCN(C)CCCC(C#N)(c2ccc(OC)c(OC)c2)C2CCCCC2)cc1OC (stereo not drawn) [Compound A2, reference compound]
[1]; [23]
  MIC50: 36 µM (≈ 17.8 µg/mL)
[1]; [21]
  MIC90: 118 µM
[1]; [24]
  MIC90: 118 µM
[13]
  MIC99 Mtb: 62.5 µM (≈ 30.9 µg/mL)

## COc1ccc(C(C#N)(CCCN2CCN(c3ccccc3F)CC2)C(C)C)cc1OC (stereo not drawn) [Compound A1, reference compound]
[1]; [23]
  MIC50: 87 µM (≈ 38.2 µg/mL)
[1]; [21]
  MIC90: 138 µM
[1]; [24]
  MIC90: 138 µM
[13]
  MIC99 Mtb: 62.5 µM (≈ 27.5 µg/mL)

## NNC(=O)c1ccncc1 [INH, isoniazid, reference compound]
[1]; M. bovis BCG
  MIC90 BCG: 0.4 µg/mL (≈ 2.92 µM)
[1]; [21]
  MIC90: 3.4 µM
[1]; [24]
  MIC90: 3.5 µM
[1]; [22]
  MIC90: 0.45 µg/mL
[9]; 2xMIC90BCG, 21 days
  regrowth in time-kill curve: uptick in CFUs was observed after 5 days
[14]
  formazan formation from MTS: increased formazan formation
[11]; 4xMIC90BCG (1.6 μg/mL)
  methylene blue decolorization (O2 uptake): Decolorization (active O2 uptake)
[15]
  effect on ATP levels: marked surge in ATP levels
[16]
  membrane permeabilization: negligible permeabilization

## CC[C@H]1OC(=O)[C@H](C)[C@@H](O[C@H]2C[C@@](C)(OC)[C@@H](O)[C@H](C)O2)[C@H](C)[C@@H](O[C@@H]2O[C@H](C)C[C@H](N(C)C)[C@H]2O)[C@](C)(OC)C[C@@H](C)C(=O)[C@H](C)[C@@H](O)[C@]1(C)O [CLR, clarithromycin, reference compound]
[3]; Mycobacteroides abscessus, ATCC19977, 7H9 broth (first value)
  MIC90: 0.5 µM (≈ 0.374 µg/mL)
[3]; [25]
  MIC50: 0.2 µM (≈ 0.15 µg/mL)
[3]; [26]
  MIC50: 0.15 µM (≈ 0.112 µg/mL)
[3]; Mycobacteroides abscessus, ATCC19977, camH broth (second value)
  MIC90: 0.4 µM (≈ 0.299 µg/mL)
[4]; Mycobacteroides abscessus, CCUG48898, 7H9 broth (first value)
  MIC90: 2 µM (≈ 1.5 µg/mL)
[4]; [25]
  MIC50: 0.5 µM (≈ 0.374 µg/mL)
[4]; [26]
  MIC50: 0.1 µM (≈ 0.0748 µg/mL)
[4]; Mycobacteroides abscessus, CCUG48898, camH broth (second value)
  MIC90: 0.23 µM (≈ 0.172 µg/mL)
[5]; Mycobacteroides abscessus, CCUG50184, 7H9 broth (first value)
  MIC90: 19 µM (≈ 14.2 µg/mL)
[5]; [25]
  MIC50: 8.8 µM (≈ 6.58 µg/mL)
[5]; [26]
  MIC50: 1 µM (≈ 0.748 µg/mL)
[5]; Mycobacteroides abscessus, CCUG50184, camH broth (second value)
  MIC90: 11 µM (≈ 8.23 µg/mL)
[17]; Mab clinical isolate M9, 7H9 broth, read-out: MIC50 M9
  MIC50: 0.1 µM (≈ 0.0748 µg/mL)
[17]; Mab clinical isolate M111, 7H9 broth, read-out: MIC50 M111
  MIC50: 0.08 µM (≈ 0.0598 µg/mL)
[17]; Mab clinical isolate M232, 7H9 broth, read-out: MIC50 M232
  MIC50: 0.27 µM (≈ 0.202 µg/mL)
[17]; Mab clinical isolate M337, 7H9 broth, read-out: MIC50 M337
  MIC50: 0.15 µM (≈ 0.112 µg/mL)
[17]; Mab clinical isolate M404, 7H9 broth, read-out: MIC50 M404
  MIC50: 0.1 µM (≈ 0.0748 µg/mL)
[17]; Mab clinical isolate M422, 7H9 broth, read-out: MIC50 M422
  MIC50: 0.22 µM (≈ 0.165 µg/mL)
[17]; Mab clinical isolate M506, 7H9 broth, read-out: MIC50 M506
  MIC50: 0.09 µM (≈ 0.0673 µg/mL)
[18]
  MIC90: 0.1 to 8.8 µM
[18]; range over subspecies, positive control
  MIC90: 0.08 to 6.6 µg/mL

From article PMC12281142, “A potent phenylalkylamine disrupts mycobacterial membrane bioenergetics and augments bactericidal activity of bedaquiline” (iScience, 2025)
